{
  "source": "patent US11091535B2",
  "about": "“Thrombin inhibitors for treatment of stroke and related coagulative disorders” (THE UNIVERSITY OF SYDNEY, priority 2016, dated 2021)",
  "system": "pooled citrated plasma",
  "assay": "in vitro activated partial thromboplastin time (APTT) assay",
  "parameters": "species or system mice",
  "conditions": "hirudin at concentrations above 2 μg/mL",
  "procedure": "The anticoagulant activity of the thrombin inhibitors disclosed herein is determined by measuring their ability to prolong clotting of human plasma in vitro using a clinical TT assay. Briefly, human plasma from healthy donors (800 μL) is mixed with a concentration range of inhibitors, clotting initiated by addition of thrombin, and clotting time measured using a coagulometer. Compounds which prolong clotting time to 30 sec at a concentration of 50 nM may be further investigated in vitro/ex vivo for APTT. In brief, pooled citrated plasma from C57BL6/J mice is pre-incubated with various concentrations (0-12 μg/mL) of inhibitors. APTT of each plasma sample is quantified following addition of a coagulation activator and CaCl2). In an ex vivo assay, mice are injected i.v. with inhibitors (fixed concentration determined from in vitro APTT) and whole blood collected into sodium citrate (˜130 μL) 0, 5, 30 and 60 min post-administration. APTT is quantified on isolated plasma using a RANDOX APTT kit, with fibrin generation monitored to measure clotting time.\nWe investigated the ability of the inhibitor of Example 2 (A^Aa) to prolong clotting time in an in vitro activated partial thromboplastin time (APTT) assay (FIG. 1A).",
  "data": [
    {"substance": "hirudin", "values": [
      {"measurement": "increase in clotting time (APTT)", "result": 8, "unit": "fold"}
    ]}
  ]
}
